This is an account of results in patent US9815854B2, “3-(3H-imidazo[4,5-B]pyridin-2-yl)-1H-pyrazolo[3,4-C]pyridine and therapeutic uses thereof” (Samumed, LLC, priority 2014, dated 2017).

Experiment [1] relates to Wnt activity (Sp5-Luc reporter, TCF/LEF binding sites) in SW480 colon carcinoma cells. In words: Sp5-Luc Wnt reporter gene screening assay in SW480 colon carcinoma cells. The settings on record: Homo sapiens. It is filed as cell-based, human. The method in brief: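 SW480 cells stably transduced with a lentiviral luciferase reporter driven by a Sp5 promoter with eight TCF/LEF sites were plated at 10,000/well in 10% FCS medium. Luminescence was normalised to DMSO and IC50 derived by four-parameter fit.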
For orientation: Reporter assays use an easily measured gene product as a stand-in for the process of interest.

The test system of experiment [2] is primary human mesenchymal stem cells (hMSCs). In words: Chondrogenesis induction screen in primary human mesenchymal stem cells (nodule imaging, Rhodamine B/Nile Red). It is filed as cell-based. The following applies: 6 days; for EC (100% of TGF-b3 activity): Homo sapiens, Mesenchymal stem cells, 144 h, concentration required to induce chondrogenesis equivalent to TGF-β3 (10 ng/mL), read-out: Conc (nM) of 100% TGF-β3 activity; for Max. Activity as % TGF-β3 activity: TGF-β3 (10 ng/mL) positive control. As to the method:
The above synthesized compounds were screened using primary human mesenchymal stem cells (hMSCs) to determine their ability to induce chondrogenesis (process by which cartilage is developed).
Human Mesenchymal Stern Cell Culture: Primary human mesenchymal stem cells (hMSCs) were purchased from Lonza (Walkersville, Md.) and expanded in Mesenchymal Stem Cell Growth Media (Lonza). Cells between passage 3 and 6 were used for the experiments.
Compound Screening: Each compound was dissolved in DMSO as a 10 mM stock and used to prepare compound source plates. Serial dilution (1:3, 6-point dose-response curves from 2700 nM to 10 nM) and compound transfer was performed using the ECHO 550 (Labcyte, Sunnyvale, Calif.) into 96-well clear bottom assay plates (Greiner Bio-One) with appropriate DMSO backfill for a final DMSO concentration of 0.03%. hMSCs were plated at 20,000 cells/well in 250 μL/well incomplete Chondrogenic induction Medium (Lonza; DMEM, dexamethasone, ascorbate, insulin-transferrin-selenium [ITS supplement], gentamycin-amphotericin [GA-1000], sodium pyruvate, proline and L-glutamine). TGF-β3 (10 ng/mL) was used as a positive control for differentiation while negative control wells were treated with 75 nL DMSO for normalization and calculating EC50 values. Cells were incubated at 37° C. and 5% CO2 for 6 days. To image chondrogenic nodules, the cells were fixed using 4% formaldehyde (Electron Microscopy Sciences), and stained with 2 μg/mL Rhodamine B (Sigma-Aldrich) and 20 μM Nile Red (Sigma-Aldrich) [Johnson K., et.al, A Stem Cell-Based Approach to Cartilage Repair, Science, (2012), 336(6082), 717-721]. The nodules imaged (4 images per well at 4× magnification) by excitation at 531 nm and emission at 625 nm and quantified using the CellInsight CX5 (Thermo Scientific). Number of nodules in each well was normalized to the average of 3 DMSO treated wells on the same plate using Excel (Microsoft Inc.). The normalized averages (fold change over DMSO) of 3 replicate wells for each compound concentration were calculated. Due to solubility limitations of some of the compounds, curve fitting was incomplete leading to inaccurate EC50 determinations.
Using TGF-β3 as a positive control, the concentration of test compounds required to induce equivalent levels of chondrogenesis is reported. In addition, the maximum activity of each compound and the respective dose that each compound reached maximum chondrogenesis activity is reported.

In experiment [3] the test system is primary human fibroblasts derived from IPF patients (LL29 cells). In words: Inhibition of the fibrotic process in TGF-β1-treated primary human fibroblasts from IPF patients (αSMA staining). Type of experiment: cell-based. The following applies: Fibroblast, 96 h, TGF-β1 20 ng/mL, 4 days, read-out: Inhibition of fibrosis EC50. The gist of the method: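 IPF-derived LL29 lung fibroblasts, 1,500 per well in F12 with 1% FBS, treated with compound (10 μM to […], 0.1% DMSO) and TGF-β1 20 ng/mL for 4 days at 37 °C. αSMA-positive live cells imaged and normalised to TGF-β1 controls; EC50 by nonlinear regression over triplicate wells.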

Usually IC50 stands for the concentration that gives 50% inhibition. High values mean a need for much substance, low ones inhibition by little substance. The EC50 is the midpoint of the concentration-response curve. In experiment [1], `Fc1cccc(-c2ccnc3[nH]c(-c4n[nH]c5cnc(-c6cncc(CN7CCC(F)(F)C7)c6)cc45)nc23)c1` [Compound 25, 5-(5-((3,3-Difluoropyrrolidin-1-yl)methyl)pyridin-3-yl)-3-(7-(3-fluorophenyl)-3H-imidazo[4,5-b]pyridin-2-yl)-1H-pyrazolo[3,4-c]pyridine] gave an IC50 of 0.0221 µM. Also, in experiment [2], the EC (100% of TGF-b3 activity) is 112 nM. In experiment [3], the EC50 turned out to be 0.02 µM.
In experiment [1], `CC(C)Nc1cncc(-c2cc3c(-c4nc5c(-c6ccc(F)cc6)ccnc5[nH]4)n[nH]c3cn2)c1` [Compound 38, 5-(3-(7-(4-Fluorophenyl)-3H-imidazo[4,5-b]pyridin-2-yl)-1H-pyrazolo[3,4-c]pyridin-5-yl)-N-isopropylpyridin-3-amine] showed an IC50 of 0.0103 µM. In experiment [2], the “Max. Activity as % TGF-β3 activity” value was found to be 300% and the EC (100% of TGF-b3 activity) came to 74.9 nM. The EC50 in experiment [3] was determined as 0.034 µM.
The compound `CC(C)(C)CC(=O)Nc1cncc(-c2cc3c(-c4nc5c(-c6ccccc6F)ccnc5[nH]4)n[nH]c3cn2)c1` [Compound 68, N-(5-(3-(7-(2-Fluorophenyl)-3H-imidazo[4,5-b]pyridin-2-yl)-1H-pyrazolo[3,4-c]pyridin-5-yl)pyridin-3-yl)-3,3-dimethylbutanamide] displayed an IC50 in experiment [1] of 0.0244 µM. Moreover, the EC (100% of TGF-b3 activity) in experiment [2] amounted to 9.3 nM. Also, the EC50 in experiment [3] came to 0.09 µM.
`FC1(F)CCN(Cc2cncc(-c3cc4c(-c5nc6c(N7CCCCC7)ccnc6[nH]5)n[nH]c4cn3)c2)C1` [Compound 181, 5-(5-((3,3-Difluoropyrrolidin-1-yl)methyl)pyridin-3-yl)-3-(7-(piperidin-1-yl)-3H-imidazo[4,5-b]pyridin-2-yl)-1H-pyrazolo[3,4-c]pyridine] yielded a concentration for half-maximal inhibition (IC50) in experiment [1] of 0.0167 µM. Further, in experiment [2], the EC (100% of TGF-b3 activity) was determined as 25.6 nM. Moreover, the EC50 in experiment [3] was found to be 0.053 µM.
The compound `c1cncc(-c2cc3c(-c4nc5cccnc5[nH]4)n[nH]c3cn2)c1` [Compound 238] gave an IC50 in experiment [1] of 0.0161 µM. In experiment [2], the “Max. Activity as % TGF-β3 activity” value is 30% and the EC (100% of TGF-b3 activity) came out at 113 nM. In experiment [3], the EC50 was 0.369 µM.
`Cc1ccncc1-c1cc2c(-c3nc4c(-c5cc(F)cc(CNS(C)(=O)=O)c5)ccnc4[nH]3)n[nH]c2cn1` [Compound 421, N-(3-Fluoro-5-(2-(5-(4-methylpyridin-3-yl)-1H-pyrazolo[3,4-c]pyridin-3-yl)-3H-imidazo[4,5-b]pyridin-7-yl)benzyl)methanesulfonamide]: the IC50 in experiment [1] was 0.0233 µM. Further, in experiment [2], the “Max. Activity as % TGF-β3 activity” value is recorded as 30% and the EC (100% of TGF-b3 activity) stood at 70 nM.
With `CCCC(=O)Nc1cncc(-c2cc3c(-c4nc5c(-c6cc(F)cc(CNS(C)(=O)=O)c6)ccnc5[nH]4)n[nH]c3cn2)c1` [Compound 433, N-(5-(3-(7-(3-Fluoro-5-(methylsulfonamidomethyl)phenyl)-3H-imidazo[4,5-b]pyridin-2-yl)-1H-pyrazolo[3,4-c]pyridin-5-yl)pyridin-3-yl)butyramide], the IC50 in experiment [1] was over 10 µM. The EC50 in experiment [3] is at least 9.99 µM.
For the compound `CS(=O)(=O)NCc1cc(F)cc(-c2ccnc3[nH]c(-c4n[nH]c5cnc(-c6cncc(CNCc7ccccc7)c6)cc45)nc23)c1` [Compound 439, N-(3-(2-(5-(5-((Benzylamino)methyl)pyridin-3-yl)-1H-pyrazolo[3,4-c]pyridin-3-yl)-3H-imidazo[4,5-b]pyridin-7-yl)-5-fluorobenzyl)methanesulfonamide], the IC50 in experiment [1] is over 10 µM. The EC50 in experiment [3] was at most 0.009 µM.
For `CS(=O)(=O)NCc1cc(F)cc(-c2ccnc3[nH]c(-c4n[nH]c5cnc(-c6cncnc6)cc45)nc23)c1` [Compound 442, N-(3-Fluoro-5-(2-(5-(pyrimidin-5-yl)-1H-pyrazolo[3,4-c]pyridin-3-yl)-3H-imidazo[4,5-b]pyridin-7-yl)benzyl)methanesulfonamide] the same measures were over 10 µM and at least 9.99 µM.
The corresponding values for `CC(C)Nc1cncc(-c2cc3c(-c4nc5c(-c6cc(F)cc(NCCN(C)C)c6)ccnc5[nH]4)n[nH]c3cn2)c1` [Compound 454, N^1-(3-Fluoro-5-(2-(5-(5-(isopropylamino)pyridin-3-yl)-1H-pyrazolo[3,4-c]pyridin-3-yl)-3H-imidazo[4,5-b]pyridin-7-yl)phenyl)—N^2,N^2-dimethylethane-1,2-diamine] are 0.0947 µM and 0.746 µM.
The compound `CN(C)CCNc1cc(F)cc(-c2ccnc3[nH]c(-c4n[nH]c5cnc(-c6cncc(CNCC7CCCC7)c6)cc45)nc23)c1` [Compound 466, N^1-(3-(2-(5-(5-(((Cyclopentylmethyl)amino)methyl)pyridin-3-yl)-1H-pyrazolo[3,4-c]pyridin-3-yl)-3H-imidazo[4,5-b]pyridin-7-yl)-5-fluorophenyl)—N2,N2-dimethylethane-1,2-diamine] showed an IC50 in experiment [1] of 1.74 µM. Also, the EC50 in experiment [3] was at most 0.009 µM.
On to `Fc1cccc(-c2ccnc3[nH]c(-c4n[nH]c5cnc(-c6cn[nH]c6)cc45)nc23)c1` [Compound 939, 3-(7-(3-Fluorophenyl)-3H-imidazo[4,5-b]pyridin-2-yl)-5-(1H-pyrazol-4-yl)-1H-pyrazolo[3,4-c]pyridine], for which, in experiment [1], the IC50 was found to be 0.198 µM. For the same compound, in experiment [3], the EC50 was determined as 0.014 µM.
The corresponding values for `Cn1cc(-c2cc3c(-c4nc5c(-c6cccc(F)c6)ccnc5[nH]4)n[nH]c3cn2)cn1` [Compound 940, 3-(7-(3-Fluorophenyl)-3H-imidazo[4,5-b]pyridin-2-yl)-5-(1-methyl-1H-pyrazol-4-yl)-1H-pyrazolo[3,4-c]pyridine] are 0.405 µM and 0.353 µM.
In experiment [1], `Cc1ncc(-c2cc3c(-c4nc5c(-c6cccc(F)c6)ccnc5[nH]4)n[nH]c3cn2)n1C` [Compound 941] came in with an IC50 of over 10 µM. The EC50 in experiment [3] came out at 1 µM.
On to `NC1CN(c2cncc(-c3cc4c(-c5nc6c(-c7cccc(F)c7)ccnc6[nH]5)n[nH]c4cn3)n2)C1` [Compound 942, 1-(6-(3-(7-(3-Fluorophenyl)-3H-imidazo[4,5-b]pyridin-2-yl)-1H-pyrazolo[3,4-c]pyridin-5-yl)pyrazin-2-yl)azetidin-3-amine], for which, in experiment [1], the IC50 worked out at 1.49 µM. Also, the EC50 in experiment [3] was found to be 1.47 µM.
In experiment [1], `CN(C)CCOc1cncc(-c2cc3c(-c4nc5c(-c6cccc(F)c6)ccnc5[nH]4)n[nH]c3cn2)c1` [Compound 947, 2-((5-(3-(7-(3-Fluorophenyl)-3H-imidazo[4,5-b]pyridin-2-yl)-1H-pyrazolo[3,4-c]pyridin-5-yl)pyridin-3-yl)oxy)-N,N-dimethylethan-1-amine] returned an IC50 of 1.6 µM. In addition, the EC50 in experiment [3] is at least 9.99 µM.
With `COc1cncc(-c2cc3c(-c4nc5c(-c6cccc(F)c6)ccnc5[nH]4)n[nH]c3cn2)c1` [Compound 948, 3-(7-(3-Fluorophenyl)-3H-imidazo[4,5-b]pyridin-2-yl)-5-(5-methoxypyridin-3-yl)-1H-pyrazolo[3,4-c]pyridine], the IC50 in experiment [1] turned out to be 0.85 µM. For the same compound, the EC50 in experiment [3] was 0.632 µM.
Consider `Fc1cccc(-c2ccnc3[nH]c(-c4n[nH]c5cnc(-c6cnccn6)cc45)nc23)c1` [Compound 954, 3-(7-(3-Fluorophenyl)-3H-imidazo[4,5-b]pyridin-2-yl)-5-(pyrazin-2-yl)-1 H-pyrazolo[3,4-c]pyridine], for which the IC50 in experiment [1] turned out to be 0.661 µM. For the same compound, the EC50 in experiment [3] is at least 9.99 µM.
The compound `COc1cc(F)cc(-c2ccnc3[nH]c(-c4n[nH]c5cnc(-c6cncc(NC(=O)CC(C)C)c6)cc45)nc23)c1` [Compound 1394, N-(5-(3-(7-(3-Fluoro-5-methoxyphenyl)-3H-imidazo[4,5-b]pyridin-2-yl)-1H-pyrazolo[3,4-c]pyridin-5-yl)pyridin-3-yl)-3-methyl butanamide] had an IC50 in experiment [1] of over 10 µM. In experiment [3], the EC50 was determined as 0.495 µM.
